Values quoted from earlier work, collected in US11718625B2, “Near-infrared fluorescent molecule active targeting folate receptor and preparation method thereof” (NANJING NUOYUAN MEDICAL DEVICES CO., LTD, priority 2020, dated 2023).

Tests used:
[1] = tested on: tumor; conditions: clinical practice
[2] = at maximum injection dosage less than 2 mg/kg; literature report and own detection data

- quantum yield (in an aqueous solution): less than 1%
- wavelength of emitted fluorescence (under irradiation with the wavelength of 780 nm): 830 nm
- concentration of the ICG in the human body tumors [2]: 10 to 1000 nM
Structure (SMILES): CC1(C)C(/C=C/C=C/C=C/C=C2\N(CCCCS(=O)(=O)O)c3ccc4ccccc4c3C2(C)C)=[N+](CCCCS(=O)(=O)[O-])c2ccc3ccccc3c21 [ICG, Indocyanine green]
- waiting time to generate sufficient fluorescence contrast (tumor: normal tissue) [1]: at least 12 hours
